These results are taken from PubChem BioAssay (NCI).

Values joined by “and” are separate entries in the source; they are usually repeats but may differ in a detail not shown here. Equal values may be shown once.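 1) Cells in 96-well plates. 2) Compound, 48 h, 5 concentrations. 3) Linear interpolation between surrounding doses. 4) Unreached endpoint = highest concentration. Abbreviation: GI50, concentration required for 50% inhibition of growth. Definition used: TGI = concentration required for complete inhibition of growth.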

The term TGI denotes the concentration giving total growth inhibition. High values mean less potent growth arrest, low ones more potent growth arrest. As usually defined, the GI50 is the concentration that inhibits growth by half.

The test system of one assay is COLO 205 colon. The assay is described as follows: DTP human tumour cell line panel, 48 h.
Turning to `Cc1nc(SCC(N)=O)c2sc(=S)n(-c3ccccc3)c2n1`, the TGI is > 10 µM.

For `O=C(CC(C(=O)c1cccs1)c1ccc2c(c1)OCO2)c1ccc(Br)cc1` (configuration not stated), the TGI was > 100 µM.

Regarding `COc1cc(-c2oc3ccccc3c(=O)c2O)cc(OC)c1OC`, the TGI is > 100 µM.

Take `CSc1ccc(/C=C2\CNC/C(=C\c3ccc(SC)cc3)C2=O)cc1`: the GI50 was 150 µg/mL; the TGI is > 371 µM and 150 µg/mL.

For `Clc1ccc(COC(Cn2ccnc2)c2ccc(Cl)cc2Cl)cc1` (configuration not stated), the GI50 is 1.84 µM; the TGI was 3.97 µM and 24.6 µM and 22.5 µM.

Regarding `CC[C@H](C)[C@H](NC(=O)c1cnccn1)C(=O)N(C)[C@H](C[C@@H](OC(C)=O)c1nc(C(=O)N[C@@H](Cc2ccccc2)C[C@H](C)C(=O)OC)cs1)C(C)C`, the GI50 was 1.17 µM and the concentration for total growth inhibition (TGI) is 4.1 µM.

Consider `Nc1c(C(=O)Nc2ccc([As](=O)(O)O)cc2)cnc2nnnn12`, for which the TGI is > 100 µM.

For the compound `CC(C)n1c(/C=C/[C@@H](O)C[C@@H](O)CC(=O)O)c(-c2ccc(F)cc2)c2ccccc21`, the GI50 is 4.44 µM and 6.2 µM; the TGI was 15.3 µM and > 65.1 µM.

In the case of `N#CC(C#N)SCc1ccccc1`, the TGI was > 33.2 µM.

For the compound `CCOc1ccc(NCC2CC/C(=C\C=C\c3ccccc3)C2=O)cc1` (configuration not stated), the TGI was determined as 31.7 µM.

A further assay has as its system SF-295 CNS. The assay can be described thus: DTP human tumour cell line panel, 48 h.
Take `Cc1ccc(C(=O)Nc2ccc(CN3CCN(C)CC3)c(C(F)(F)F)c2)cc1C#Cc1cnc(N)c2ccc(F)cc12`: the GI50 is 633 nM and the concentration for total growth inhibition (TGI) came out at 2.34 µM.

With `CC1(C)CCC(C)(C)c2cc(C(=O)Nc3ccc(C(=O)O)cc3)ccc21`, the TGI was > 54.7 µM.

In the case of `CC1=C(C(=O)NC2CCCCC2)CC(C(=O)NC2CCCCC2)=C(C)N1`, the TGI is > 100 µM.

On to `Cn1cc(C2=C(c3cn(C)c4ccc(N)cc34)C(=O)NC2=O)c2ccccc21`, for which the GI50 is 6830 nM and the TGI is > 22.2 µM.

On to `S=C(N/N=C/c1cc(Cl)cc(Cl)c1)NC12CC3CC(CC(C3)C1)C2`, for which the GI50 is 3920 nM and the TGI is > 24.5 µM.

Regarding `CCCCN1C(=O)CC2[C@@H]3CCc4cc(OC)ccc4C3CC[C@]2(C)C1=O` (some centres not stated), the total growth inhibition concentration (TGI) is > 10 µM.

For the compound `COc1cc2cc(Oc3ccc(NC(=O)c4cccc(C(F)(F)F)c4)cc3)c(C)nc2cc1OC`, the GI50 was 2730 nM and the concentration for total growth inhibition (TGI) is > 100 µM.

With `COc1cc(/C=C2\CN(C)CC3=C2Nc2nc(SC)[nH]c(=O)c2C3c2cc(OC)c(OC)c(OC)c2)cc(OC)c1OC` (configuration not stated), the GI50 is 2240 nM and the total growth inhibition concentration (TGI) stood at 5.47 µM.

Consider `Cc1nc(SCC(N)=O)c2sc(=S)n(-c3ccccc3)c2n1`, for which the TGI is > 10 µM.

As to `O=C(CC(C(=O)c1cccs1)c1ccc2c(c1)OCO2)c1ccc(Br)cc1` (configuration not stated), the TGI was > 100 µM.

For `COc1cc(-c2oc3ccccc3c(=O)c2O)cc(OC)c1OC`, the TGI is > 100 µM.

On to `CSc1ccc(/C=C2\CNC/C(=C\c3ccc(SC)cc3)C2=O)cc1`, for which the GI50 is 9.25 µg/mL; the TGI is > 150 µM and 33.5 µg/mL.

For `Clc1ccc(COC(Cn2ccnc2)c2ccc(Cl)cc2Cl)cc1` (configuration not stated), the GI50 was 1900 nM; the TGI is 8.99 µM and 24 µM and 23.6 µM.

Turning to `CC[C@H](C)[C@H](NC(=O)c1cnccn1)C(=O)N(C)[C@H](C[C@@H](OC(C)=O)c1nc(C(=O)N[C@@H](Cc2ccccc2)C[C@H](C)C(=O)OC)cs1)C(C)C`, the GI50 is 1030 nM and the TGI was > 33.3 µM.

Take `Nc1c(C(=O)Nc2ccc([As](=O)(O)O)cc2)cnc2nnnn12`: the concentration for total growth inhibition (TGI) was > 100 µM.

On to `CC(C)n1c(/C=C/[C@@H](O)C[C@@H](O)CC(=O)O)c(-c2ccc(F)cc2)c2ccccc21`, for which the GI50 is 361 nM and 429 nM.

With `N#CC(C#N)SCc1ccccc1`, the TGI was > 100 µM.

The compound `CCOc1ccc(NCC2CC/C(=C\C=C\c3ccccc3)C2=O)cc1` (configuration not stated) displayed a TGI of 79.5 µM.

Another assay has as its system SF-268 CNS. The assay can be described thus: DTP human tumour cell line panel, 48 h.
On to `Cc1ccc(C(=O)Nc2ccc(CN3CCN(C)CC3)c(C(F)(F)F)c2)cc1C#Cc1cnc(N)c2ccc(F)cc12`, for which the GI50 was 259 nM and the TGI was found to be 1.88 µM.

For `CC1(C)CCC(C)(C)c2cc(C(=O)Nc3ccc(C(=O)O)cc3)ccc21`, the TGI was > 87.4 µM.

With `CC1=C(C(=O)NC2CCCCC2)CC(C(=O)NC2CCCCC2)=C(C)N1`, the TGI was > 100 µM.

Regarding `Cn1cc(C2=C(c3cn(C)c4ccc(N)cc34)C(=O)NC2=O)c2ccccc21`, the GI50 was 15600 nM and the TGI was > 25 µM.

With `S=C(N/N=C/c1cc(Cl)cc(Cl)c1)NC12CC3CC(CC(C3)C1)C2`, the GI50 was 6180 nM and the TGI is > 100 µM.

For the compound `CCCCN1C(=O)CC2[C@@H]3CCc4cc(OC)ccc4C3CC[C@]2(C)C1=O` (some centres not stated), the TGI is > 10 µM.

With `COc1cc2cc(Oc3ccc(NC(=O)c4cccc(C(F)(F)F)c4)cc3)c(C)nc2cc1OC`, the GI50 is > 100000 nM and the TGI was > 100 µM.

For `COc1cc(/C=C2\CN(C)CC3=C2Nc2nc(SC)[nH]c(=O)c2C3c2cc(OC)c(OC)c(OC)c2)cc(OC)c1OC` (configuration not stated), the GI50 is 1660 nM and the TGI was determined as 3.4 µM.

As to `Cc1nc(SCC(N)=O)c2sc(=S)n(-c3ccccc3)c2n1`, the TGI was > 10 µM.

Consider `O=C(CC(C(=O)c1cccs1)c1ccc2c(c1)OCO2)c1ccc(Br)cc1` (configuration not stated), for which the TGI was > 100 µM.

`COc1cc(-c2oc3ccccc3c(=O)c2O)cc(OC)c1OC`: the TGI is > 100 µM.

In the case of `CSc1ccc(/C=C2\CNC/C(=C\c3ccc(SC)cc3)C2=O)cc1`, the GI50 was 44 µg/mL; the total growth inhibition concentration (TGI) is > 141 µM and 150 µg/mL.

For `Clc1ccc(COC(Cn2ccnc2)c2ccc(Cl)cc2Cl)cc1` (configuration not stated), the GI50 is 3420 nM; the TGI is 18.3 µM and 36.1 µM and 36.7 µM.

In the case of `CC[C@H](C)[C@H](NC(=O)c1cnccn1)C(=O)N(C)[C@H](C[C@@H](OC(C)=O)c1nc(C(=O)N[C@@H](Cc2ccccc2)C[C@H](C)C(=O)OC)cs1)C(C)C`, the GI50 is 1660 nM and the total growth inhibition concentration (TGI) is > 33.3 µM.

With `Nc1c(C(=O)Nc2ccc([As](=O)(O)O)cc2)cnc2nnnn12`, the TGI is > 100 µM.

Consider `CC(C)n1c(/C=C/[C@@H](O)C[C@@H](O)CC(=O)O)c(-c2ccc(F)cc2)c2ccccc21`, for which the GI50 was 666 nM and 818 nM; the TGI is > 100 µM.

As to `N#CC(C#N)SCc1ccccc1`, the concentration for total growth inhibition (TGI) was > 100 µM.

`CCOc1ccc(NCC2CC/C(=C\C=C\c3ccccc3)C2=O)cc1` (configuration not stated) displayed a total growth inhibition concentration (TGI) of 24.2 µM.
